Consider two compounds from patent publication US11530132B2, “Composition comprising porous silica particles carrying a cell fate modulating factor” (LEMONEX INC., priority 2017, dated 2022).

Test [1] has as its system nerve cells or fibroblasts. Description: Transfection rate of factors carried in DDV. It is filed as cell-based. Conditions: factor carried in DDV.
For test [2], the system named is nerve cells or fibroblasts. Description: Forward differentiation rate with factors carried in DDV. It is filed as cell-based. Conditions: factor carried in DDV.
Excerpt: (§1) This process was repeated 3 times.
as §1

The subject of the next test is mES cells. Description: Neural induction of mES cells, quantitative image analysis (Tuj1-positive cells, axon length). It is filed as cell-based, mouse. Particulars: after neural induction; FIG. 32. On the procedure: Neural induction of mES cells was conducted by adding RA or RA/AMSN19 complex. In particular, 10^−6M RA or 25 μg of RA/AMSN19 (corresponding to 3×10^−6M including RA) was used for treatment of mES cells in a complete mES medium for 2 days. A non-induction group was cultured as a negative control group. After 2 days, the medium was replaced with a new nerve cell culture medium, N2B27. The medium was replaced on alternate days.
For quantitative analysis, 5 representative fluorescent images were obtained from different immunostain samples, respectively. The images were analyzed by an ImageJ program. For Tuj1-positive cell analysis, the number of florescent cells expressing Tuj1 more than a critical value was measured from each image, followed by calculating a ratio of the measured number to a total number of nuclei. For measurement of a length of axon, axons contained in 50 cells in each sample were analyzed by a line measurement device. In consideration of 100 representative axons, an average value was calculated.

As to `Nc1ncn([C@@H]2O[C@H](CO)[C@@H](O)[C@H]2O)c(=O)n1` [5-azacytidine], the Transfection rate in test [1] was 50-95%. For the same compound, in test [2], the Forward differentiation rate is on record as 5-30%.
Regarding `CC1=C(/C=C/C(C)=C/C=C/C(C)=C/C(=O)O)C(C)(C)CCC1` [RA, retinoic acid], the “Cell conversion efficiency (rate of Tuj1 positive cells among entire cells survived)” value in the test on mES cells is reported as “about 30%”.
